For data set [1], the system named is cultured cerebral cortex neurons of a mouse. Nature of the data set: Zinc ion permeable carrier test, ZinPyr-1. Format: cell-based. As to the method: ZinPyr-1 is a fluorescent dye which has a lower Kd value than that of FluoZin-3 and is used to measure a change in a zinc concentration even at a lower concentration. Whether the drug #28 of the present invention can act as an ion permeable carrier was under observation using ZinPyr-1. More particularly, the cultured cerebral cortex neurons of a mouse were treated with ZinPyr-1 then treated with the drug #28 (0.05 μM) and clioquinol (0.5 μM) in a typically used neuronal cell culture medium, so as to determine a change in zinc ion concentrations in the neurons. Also, a non-treatment group was used as a control group.
Therefore, after adding a further 0.5 μM concentration of zinc to the cell culture medium, a change in zinc concentration in the cells was under observation.

Data set [2] is described as follows: Calcium chelation with Fura-2 dye (test tube). The format is physicochemical. As to the method:
(§1) In order to determine whether the above result is obtained by the chelation of Ca^2+ ions other than the drug #28, protective effects of the drug #28 (10 to 60 μM) after treatment using ionomycin, which is a calcium ion permeable carrier (‘calcium ionophore’) directly increasing the intracellular calcium concentration, were under observation. Further, using a Fura-2 dye that is combined with calcium to represent fluorescence, it was monitored whether the drug #28 is combined with calcium on a test tube and represents chelating effects.

Data set [3] relates to neuronal cells. Nature of the data set: Ionomycin (calcium ionophore) neurotoxicity. The settings on record: 10 to 60 μM tested. The format is cell-based. The method, then:
as §1

Data set [4] concerns cultured cerebral cortex neurons of a mouse. The data set is described as follows: Intracellular free zinc after zinc exposure, FluoZin-3 (confocal microscope, fluorometer). The format is cell-based. The method, then: In order to monitor whether an actual free zinc concentration in neuronal cells is increased or not, the cultured cerebral cortex neurons of a mouse were pre-treated with a FluoZin-3 staining material, exposed to high concentration zinc, and then, treated with 4C01 (20 μM), 4C07 (20 μM) and the drug #28 (20, 50 μM). Thereafter, images of these treated neurons were observed using a confocal laser fluorescence microscope, and a fluorescent size was quantitatively measured using a fluorescence photometer (fluorometer).

`O=C1N=C(Nc2cccc(O)c2)S/C1=C\c1c[nH]c2ccccc12` [compound 28, (Z)-5-((1H-indol-3-yl)methylene)-2-((3-hydroxyphenyl)amino)thiazol-4(5H)-one]: the “increase of zinc in neurons, general culture conditions” value in data set [1] (#28 0.05 μM, clioquinol 0.5 μM) is recorded as “not clearly demonstrated”. In data set [1] (further 0.5 μM zinc added to the cell culture medium), the “increase of zinc in neurons, zinc-supplemented medium” value is given as “significant increase in zinc”. The “affinity to calcium ions versus zinc ions” value in data set [2] was “lower affinity to calcium ions than zinc ions”. Besides, the “chelating effects for calcium” value in data set [2] (Fura-2 dye, test tube) is “shows the chelating effects for calcium in a high concentration”. Also, the “concentration exhibiting toxicity protective effects against ionomycin” value in data set [3] was “more than 40 μM”. The “increase in intracellular free zinc, fluorescence magnitude” value in data set [4] (4C01, 4C07 20 μM, #28 20, 50 μM, fluorometer) is listed as “inhibit an increase in intracellular free zinc to the similar level”. In data set [4] (high concentration zinc, 20, 50 μM, confocal microscope), the “increase in free zinc in the neurons” value is recorded as “significantly reduced”.
